Reference: patent US20140303109A1 (priority 2010, published 2014)

Assays:
[1] = tested on: BxPC-3 pancreatic cancer cells; experiment: MTT assay, BxPC-3 cell growth, 72 h; format: cell-based, human; settings: various concentrations
Method: The concentrations were 10 μM, 20 μM, and 30 μM. After aspiration of growth medium, (3-(4,5-Dimethylthiazol-2-yl)-2,5-diphenyltetrazolium bromide (MTT; 1 mg/ml) was added to the cell cultures, followed by incubation for 3 hours at 37° C. After the cells were crystallized, the MTT was removed and dimethylsulfoxide (DMSO) was added to dissolve the metabolized MTT product. The absorbance was then measured on a Wallac Victor^3 1420 Multi-label counter at 540 nm.
The results are shown on FIG. 5 which is a series of four bar graphs, labeled FIG. 5A through FIG. 5D.

[2] = tested on: CD44 and EpCAM; experiment: CD44 and EpCAM immunostaining of pancreatospheres; format: cell-based, human; settings: AsPC-1 and AsPC-1-GTR, 7 days
Method: Single cell suspensions of AsPC-1 and AsPC-1-GTR were plated into sphere formation media as previously described. After 7 days, the pancreatospheres were collected, washed, and fixed. The CSC biomarkers, CD44 and EpCAM, were used for immunostaining and the pancreatospheres were examined with confocal microscopy.

[3] = tested on: AsPC-1, AsPC1-GTR, MIAPaCa-2, and MIAPaCa-2-GTR cell lines; experiment: MTT cell survival and combination index, four PC lines; format: cell-based, human; settings: 72 h, 4 μMol/L
From the text: Untreated control has been assigned a value of 100%. The p value shown represents comparisons between a single agent t and their combinations by using a paired t-test. A combination Index (CI)<1 for the CDF and GEM combination indicates synergism. The results are shown on FIGS. 17A to 17D.

[4] = tested on: 5-FU+Ox-resistant cancer cells; settings: alone or with 5-FU+Ox or FOLFOX; cited from earlier work
[5] = tested on: AsPC-1-GTR and MIAPaCa-2-GTR cells; experiment: Clonogenic assay, gemcitabine/tarceva-resistant lines; format: cell-based, human; settings: 4 μmol/L CUR or CDF, 20 nmol/L GEM
[6] = tested on: NF-κB DNA binding activity; experiment: EMSA for NF-κB DNA binding activity, MIA PaCa-2; format: cell-based, human; settings: CUR 4 μM, CDF 2 μM

Row | Structure (SMILES) | cell growth inhibition [1] | expression of CD44 and EpCAM in pancreatospheres [2] | cell survival [3] | reducing and/or reversing chemoresistant colon cancer cells [4] | reduction of clonogenicity [5] | NF-κB DNA binding activity [6]
1 | COc1cc(/C=C/C(=O)C(=Cc2ccc(F)c(F)c2)C(=O)/C=C/c2ccc(O)c(OC)c2)ccc1O [CDF, (1E,6E)-1,7-bis(4-hydroxy-3-methoxyphenyl)hepta-1,6-diene{4(3,4 difluorobenzaldehyde)}-3,5-dione] | superior to CUR in inducing cell growth inhibition | decreased the expression of CD44 and EpCAM in pancreatospheres | much more significant reduction of cell survival in PC cells than GEM, CUR, or their combination | superior to naturally-occurring CUR | 80% | –
2 | COc1cc(/C=C/C(=O)CC(=O)/C=C/c2ccc(O)c(OC)c2)ccc1O [CUR, (1E,6E)-1,7-bis(4-hydroxy-3-methoxyphenyl)hepta-1,6-diene-3,5-dione, reference compound] | – | – | – | – | – | down-regulation of NF-κB
